The structures appear in SMILES notation.

In the test the test system is E. coli wild-type strain JM83 (gene expression). Briefly: Primer extension analysis of mRNA levels in DHCP-treated vs control cells. The class given is cell-based. The settings on record: DHCP 250 μM, 8 h. The procedure: FIG. 1 are gels showing the effect of DHCP on the levels of mRNAs. Total RNA was extracted by the hot phenol method as described in the Materials and Methods section of Example 1, and primer extension analysis was carried out with oligonucleotides corresponding to osmY, dps, rpoS, katG, cysK, tehA, zipA, and ompF. Lanes 1 and 2 in each case represent mRNAs isolated from control (untreated) and DHCP treated cells, respectively.
E. coli wild-type strain JM83 [F^− araΔ(lac-proAB) rpsL(str^r)] (Yanisch-Perron et al., 1985) was grown in Luria broth (LB). V. harveyi strains BB152 and BB170 were a gift from Dr. Bonnie Bassler (Princeton University). These strains were grown in AB medium as described previously (Surette et al., 1999).
E. coli cells grown overnight in LB medium were diluted into fresh LB medium. After the growth reached a Klett unit of 50, DHCP was added (250 μM) and growth was further monitored. After growth reached a Klett unit of 90-100, it was diluted 10-fold into a medium containing the same concentration of DHCP as described previously (Phadtare et al., 2001). The cells were harvested after a total of 8 h of incubation with DHCP. […] The total RNA was extracted by the hot phenol method described previously (Sarmientos et al., 1983). It was further purified by RNeasy Minikit (Qiagen) and was then treated with DNase I followed by phenol-chloroform treatment and ethanol precipitation. It was quantified by measuring absorbance at 260 nm. The purity of RNA was confirmed by agarose gel electrophoresis.
The primers used for detection of the respective mRNAs were: Primer 750077, 5′-[…]-3′ (SEQ ID NO:1), that corresponds to the sequence from the 15th to the 8th codon of osmY (Yim et al., 1992); primer 750078, 5′-[…]-3′ (SEQ ID NO:2), that corresponds to the sequence from the 16th to the 9th codon of dps (Altuvia et al., 1994); Primer 979747, 5′-[…]-3′ (SEQ ID NO:3), that corresponds to the region from the 6th codon of rpoS (Takayanagi et al., 1994); primer 956660, 5′-AGT […]-3′ (SEQ ID NO:4), that corresponds to the region from 13th to the 6th codon of katG (Triggs-Raine et al., 1998); primer 3969805, 5′-[…]-3′ (SEQ ID NO:5), that corresponds to the region from 20th to the 13th codon of cysK (Byrne et al., 1988); primer 3969806, 5′-[…]-3′ (SEQ ID NO:6), that corresponds to the region from 13th to the 6th codoh of tehA (Walter et al., 1991); primer 3969807, 5′[…]-3′ (SEQ ID NO:7), that corresponds to the region from 10th to the 3rd codon of zipA (Hale et al., 1997); and primer 7018 5′-[…]-3′ (SEQ ID NO:8), that includes the region encompassing from the first codon of ompF (accession numbers, J01655, M10311 and M10312). The primers were labeled with [γ-^32P] ATP (Du-Pont-New England Nuclear] by using T4 polynucleotide kinase (Gibco BRL). Primer extension was carried out with 5 μg of RNA at 42° C. for 1 h in a final reaction volume of 10 μl, with 50 mM Tris-HCl (pH 8.5), 8 mM MgCl2, 30 mM KCl, 1 mM dithiothreitol, 0.4 pmol of ^32P-labeled primer, 0.5 mM each of the dNTPs, 10 U RNase inhibitor (Boehringer Mannheim) and 6.25 U of reverse transcriptase (Boehringer Mannheim). The products were analyzed on a 6% polyacrylamide gel under denaturing conditions. Quantitation of primer extension products was carried out by direct radioactive measurements.

`O=C1C=CC(O)C1O` (centres unmarked) [DHCP, 4,5-dihydroxy-2-cyclopenten-1-one]: the “Primer extension: ratio of mRNA level DHCP-treated to control” value stood at 18.00 (gene cysK); 12.00 (gene dps); 9.00 (gene katG); 0.06 (gene ompF); 15.00 (gene osmY); 4.00 (gene rpoS). The “Primer extension: ratio of mRNA level DHCP-treated to control” value is, setting by setting: (gene tehA) 5.00; (gene zipA) 5.00.

Values taken from patent US20060035317A1, “Effect of treatment with 4,5-dihydroxy-2-cyclopenten-1-one (dhcp) on gene expression and quorum-sensing in bacteria” (priority 2002, published 2006).
